Measured values published in paper PMC7144106, “The Evolution of Pleconaril: Modified O-Alkyl Linker Analogs Have Biological Activity towards Coxsackievirus B3 Nancy” (Molecules, 2020).
Where two headings read alike, the source gives them in different places.

Key:
Type in all cases: cell-based
in vitro = conditions: for CC50 at 24 h: African green monkey; for CC50 at 72 h: dog
Description: The microtetrazolium test (MTT) was used to study the cytotoxicity of the compounds [24]. The experiment was repeated three times. Vero cells were seeded in 96-well plates in Eagles minimal essential medium (MEM) supplemented with 10% FBS. After 24 h, the media was removed, and the wells were washed with saline. Compounds were dissolved in DMSO, and a series of three-fold dilutions of each compound and pleconaril (1000-4 µg/mL) in MEM without FBS were prepared and added to the cells in quadriplicates (200 µL per well). The maximal concentration of DMSO was 0.5% MEM with 0.5% DMSO and was added to cell control wells. Cells were incubated for 24 h at 37 °C in 5% CO2 in the presence of the dissolved compounds. The cells were then washed with saline, and a solution of 3-(4,5-dimethylthiazolyl-2) 2,5-diphenyltetrazolium bromide (ICN Biochemicals Inc., Aurora, OH, USA) (0.5 µg/mL) in MEM was added to the wells (100 µL per well). After 2 h of incubation at 37 °C in 5% CO2, the supernatant from wells was discarded, and the formazan residue was dissolved in DMSO (100 µL per well). The optical density of cells was then measured on a Victor 21,440 multifunctional reader (Perkin Elmer, Turku, Finland) at a wavelength of 535 nm and plotted against the concentration of the compounds to generate the dose–response curve. The 50% cytotoxic dose (CC50) of each compound (i.e., the compound concentration that causes the death of 50% of cells in a culture, or decreases the optical density twice as compared to the control wells) was calculated using four-parameter logistic nonlinear regression model. For some compounds (35a and 35b) cytotoxicity towards MDCK cell line was determined using the procedure above, but the cells were exposed to compounds for 72 h.

[1] = system: coxsackievirus B3 strain Nancy; assay: Viral yield reduction assay against CVB3 in Vero cells; conditions: for IC50: Vero cells, viral yield reduction, MOI 0.01, 24 h, read-out: IC50 towards CVB3
[2] = system: influenza virus A/Puerto Rico/8/34 (H1N1); assay: Antiviral activity against IAV, hemagglutination test in MDCK cells; conditions: for IC50: MDCK cells, hemagglutination test, 72 h, read-out: IC50 Towards IAV

For `CCOC(=O)c1cc(CCCSc2ccc(-c3noc(C(F)(F)F)n3)cc2C)on1` [Compound 6a, 3-(3-Methyl-4-((3-(3-carbethoxy-isoxazol-5-yl)propyl)thio)phenyl)-5-(trifluoromethyl)-1,2,4-oxadia-zole], the CC50 at 24 h (in vitro) was 485 ± 20.1 µM and the IC50 ([1]; Enterovirus B) was 21 ± 1.5 µM.

Work on `Cc1cc(CCCSc2ccc(-c3noc(C(F)(F)F)n3)cc2C)on1` [Compound 6b, 3-(3-Methyl-4-((3-(3-methylisoxazol-5-yl)propyl)thio)phenyl)-5-(trifluoromethyl)-1,2,4-oxadiazole] yielded a CC50 at 24 h (in vitro) of over 2610 µM and an IC50 ([1]; Enterovirus B) of 15.6 ± 1.4 µM.

`Cc1cc(-c2noc(C(F)(F)F)n2)ccc1SCCCc1cc(C(=O)N(C)C)no1` [Compound 7, N,N-dimethyl-5-(3-((2-methyl-4-(5-(trifluoromethyl)-1,2,4-oxadiazol-3-yl)phenyl)thio)propyl)isoxa-zole-3-carboxamide] showed a CC50 at 24 h (in vitro) of over 2270 µM and an IC50 ([1]; Enterovirus B) of 18.6 ± 1.3 µM.

`CCOC(=O)c1cc(CCC(=O)Oc2ccc(-c3noc(C(F)(F)F)n3)cc2C)on1` [Compound 12a, Ethyl 5-(3-(2-methyl-4-(5-(trifluoromethyl)-1,2,4-oxadiazol-3-yl)phenoxy)-3-oxopropyl)-isoxazole-3-carboxylate] gave a CC50 at 24 h (in vitro) of 683 ± 30.4 µM and an IC50 ([1]; Enterovirus B) of 9.1 ± 0.8 µM.

`Cc1cc(CCC(=O)Oc2ccc(-c3noc(C(F)(F)F)n3)cc2C)on1` [Compound 12b, 2-Methyl-4-(5-(trifluoromethyl)-1,2,4-oxadiazol-3-yl)phenyl 3-(3-methylisoxazol-5-yl)propanoate] gave a CC50 at 24 h (in vitro) of 464 ± 30.3 µM and an IC50 ([1]; Enterovirus B) of 13.1 ± 0.9 µM.

`CCOC(=O)c1cc(CCC(=O)Nc2ccc(-c3noc(C(F)(F)F)n3)cc2C)on1` [Compound 20a, Ethyl 5-(3-((2-methyl-4-(5-(trifluoromethyl)-1,2,4-oxadiazol-3-yl)phenyl)amino)-3-oxopropyl)isoxa-zole-3-carboxylate] gave a CC50 at 24 h (in vitro) of 1720 ± 70.5 µM and an IC50 ([1]; Enterovirus B) of 18.2 ± 1.6 µM.

`Cc1cc(CCC(=O)Nc2ccc(-c3noc(C(F)(F)F)n3)cc2C)on1` [Compound 20b, N-(2-Methyl-4-(5-(trifluoromethyl)-1,2,4-oxadiazol-3-yl)phenyl)-3-(3-methylisoxazol-5-yl)propan-amide] showed a CC50 at 24 h (in vitro) of 1740 ± 120 µM and an IC50 ([1]; Enterovirus B) of 76.2 ± 5.3 µM.

`Cc1cc(-c2noc(C(F)(F)F)n2)ccc1NC(=O)CCc1cc(C(=O)N(C)C)no1` [Compound 21, N,N-dimethyl-5-(3-((2-methyl-4-(5-(trifluoromethyl)-1,2,4-oxadiazol-3-yl)phenyl)amino)-3-oxopro-pyl)isoxazole-3-carboxamide] gave a CC50 at 24 h (in vitro) of 1690 ± 70.7 µM and an IC50 ([1]; Enterovirus B) of 6.8 µM.

Work on `Cc1cc(-c2noc(C(F)(F)F)n2)ccc1N1CCN(c2cc(C(=O)N(C)C)no2)CC1` [Compound 28a, N,N-Dimethyl-5-(4-(2-methyl-4-(5-(trifluoromethyl)-1,2,4-oxadiazol-3-yl)phenyl)piperazin-1-yl)iso-xazole-3-carboxamide] yielded a CC50 at 24 h (in vitro) of 1870 ± 90.4 µM and an IC50 ([1]; Enterovirus B) of 9.1 ± 0.7 µM.

For `Cc1cc(CN2CCN(c3ccc(-c4noc(C(F)(F)F)n4)cc3C)CC2)on1` [Compound 28b, 3-(3-Methyl-4-(4-((3-methylisoxazol-5-yl)methyl)piperazin-1-yl)phenyl)-5-(trifluoromethyl)-1,2,4-oxadiazole], the CC50 at 24 h (in vitro) was 2460 ± 171 µM and the IC50 ([1]; Enterovirus B) was 41.7 ± 2.1 µM.

Work on `CCOC(=O)c1cc(N2CCN(c3ccc(-c4noc(C(F)(F)F)n4)cc3C)CC2)on1` [Compound 28c, Ethyl 5-(4-(2-methyl-4-(5-(trifluoromethyl)-1,2,4-oxadiazol-3-yl)phenyl)piperazin-1-yl)isoxazole-3-carboxylate] yielded a CC50 at 24 h (in vitro) of about 53.2 µM and an IC50 ([1]; Enterovirus B) of 48.7 ± 4.4 µM.

For `Cc1cc(-c2noc(C(F)(F)F)n2)ccc1N1CCN(C(=O)c2cc(-c3ccccc3)no2)CC1` [Compound 35a, (4-(2-Methyl-4-(5-(trifluoromethyl)-1,2,4-oxadiazol-3-yl)phenyl)piperazin-1-yl)(3-phenylisoxazol--5-yl)methanone], the CC50 at 24 h (in vitro) was 1520 ± 70.3 µM, the CC50 at 72 h (in vitro) was 1450 ± 102 µM and the “activity towards CVB3 (in words)” value [1] was “inactive”. The IC50 ([1]; Enterovirus B) was over 620 µM, the “activity against the influenza virus A (in words)” value [2] was “inactive” and the IC50 [2] was over 493 µM.

Molecule `Cc1cc(-c2noc(C(F)(F)F)n2)ccc1N1CCN(C(=O)c2c(-c3ccccc3)noc2C)CC1` [Compound 35b, (5-Methyl-3-phenylisoxazol-4-yl)(4-(2-methyl-4-(5-(trifluoromethyl)-1,2,4-oxadiazol-3-yl)phenyl)pi-perazin-1-yl)methanone] has a CC50 at 24 h (in vitro) of 2010 ± 121 µM, a CC50 at 72 h (in vitro) of over 604 µM and an IC50 ([1]; Enterovirus B) of 16.1 ± 1.1 µM. The “activity against the influenza virus A (in words)” value [2] was “inactive” and the IC50 [2] was over 604 µM.

Work on `Cc1cc(CCCOc2c(C)cc(-c3noc(C(F)(F)F)n3)cc2C)on1` [Pleconaril] yielded a CC50 at 24 h (in vitro) of 2400 ± 160 µM and an IC50 ([1]; Enterovirus B) of 18.4 ± 1.5 µM.

In the case of “Methyl 5-(4-(2-methyl-4-(5-(trifluoromethyl)-1,2,4-oxadiazol-3-yl)phenyl)piperazin-1-yl)-isoxazole--3-carboxylate [Compound 28d]”, the IC50 [1] is reported as 3.9 ± 0.3 µM.
